Legend:
Assay type in all cases: cell-based
Settings in all cases: after 10, 20, 40 and 60 minutes at all dilutions 1:100, 1:200, 1:400, 1:800
Staphylococcus aureus = experiment: Antimicrobial testing by agar dilution, Staphylococcus aureus
Experimental: (§1) The antimicrobial properties of the 4,5-bis(4-chlorophenyl)-1-hexyl-2-(3-hydroxy-4-methoxyphenyl)-1H-imidazole (5) were studied by the method of agar dilution. Test solutions of each compound were prepared in concentration of 1% using dimethylformamide as a solvent then they are diluted in physiological solution to obtain the final experimental dilutions 1:100, 1:200, 1:400, 1:800. The effect of these substances were compared with furacillin in a controllable study. The testing microbes used were gram positive bacteria Staphylococcus aureus, gram negative bacteria Escherichia coli, Pseudomonas aeruginosa and Candida albicans fungi were taken. The experiments used for this survey were meat-pentonlu agar (EPA) for cultivation of bacteria and Saburo environment for fungi. Each experiment used 1 ml of test solution on each plate 500 min. Add 2 drops of emulsified with microbes feel. All experimental samples were taken from the agar after 10, 20, 40, 60 minutes in the environment on the basis of Patrk planted. Bacteria were cultivated at a temperature of 37° C. for 1 day and the mushroom was kept in a thermostat for 2 hours at a temperature of 28° C. in the. Then results were checked.

Escherichia coli = experiment: Antimicrobial testing by agar dilution, Escherichia coli
Experimental: as §1

Pseudomonas aeruginosa = experiment: Antimicrobial testing by agar dilution, Pseudomonas aeruginosa
Experimental: as §1

Candida albicans = experiment: Antimicrobial testing by agar dilution, Candida albicans
Experimental: as §1

CCCCCCn1c(-c2ccc(OC)c(O)c2)nc(-c2ccc(Cl)cc2)c1-c1ccc(Cl)cc1 [4,5-bis(4-chlorophenyl)-1-hexyl-2-(3-hydroxy-4-methoxyphenyl)-1H-imidazole]
highest inhibition activity: inhibition activity, Staphylococcus aureus (Staphylococcus aureus) | inhibition activity, Escherichia coli (Escherichia coli) | inhibition activity, Pseudomonas aeruginosa (Pseudomonas aeruginosa) | inhibition activity, Candida albicans (Candida albicans)

From patent publication US11981640B1, “4,5-bis(4-chlorophenyl)-1-hexyl-2-(3-hydroxy-4-methoxyphenyl)-1H-imidazole as an antimicrobial compound” (KING FAISAL UNIVERSITY, priority 2023, dated 2024)
